Patent US6177592A, “Compounds” (priority 1997, dated 2001)

Key:
[1] = Blood sugar, insulin and lipid in KK-Ay mice; type: in vivo, mouse (KK-A^y)
Description: KK-A^y Mice (male; four weeks age) were purchased from Clea Japan and, after breeding at our end until ten weeks age, GM was orally administered for 21 days and its influence on sugar, insulin and lipid in blood was investigated. Doses of GM were 30, 100 and 300 mg/kg.
Incidentally, the animals were grouped into four (each group consisting of ten animals) and the four groups were administered with physiological saline solution (5 ml/kg) or 30, 100 or 300 mg/5 ml/kg of GM. Each test substance was orally administered once daily for 21 days and, on the final day of administration, the animals were anesthetized with ether after four hours from the administration of the test substance and blood was collected from artery of lower abdomen. Insulin in serum was measured by an enzyme-immunoassay (commercially available kit: Glazym Insulin-EIATEST,manufactured by Wako Pure Chemicals). Sugar, triglycerides and free fatty acids in serum were measured using an automatic analyzer (type 7070, manufactured by Hitachi) by a hexonase-G6PDH method, a GPO.cndot.DAOS method and an ACS.cndot.ACOD method, respectively. Total cholesterol in serum was measured using an automatic analyzer (type 7070, manufactured by Hitachi) by a cholesterol-oxidase, DAOS method.

[2] = tested on: heat shock protein of 70 kDa (HSP70); assay: Induction of heat shock protein of 70 kDa in HL-60; type: cell-based, human; set-up: key to Induction of Heat Shock Protein: -: no induction was noted; ±: the induction was slight; indicates degree of intensity of induction and the more the numbers of "+", the more the intensity of induction; ++: the more the numbers of "+", the more the intensity of induction; +++: the more the numbers of "+", the more the intensity of induction; conditions: for action of inducing the heat shock protein (in words): Example 14, compared with GM and CM
Description: (1) An RPMI 1640 medium (5 ml) containing 10% of fetal bovine serum which contained 2×10^5 cells/ml of HL-60 (ATCC CCL-24C) was placed in each well of a six-well plate, incubated at 37° C. for 24 hours in the presence of 5% of CO2, then GM was added thereto to make its final concentration 0, 0.5, 1.0, 3.0, 5.0, 10.0 or 20.0 μM and the incubation was further continued for eight hours more.
After completion of the incubation, cell numbers were counted and the cells were recovered by centrifugation and washed with PBS to prepare GM-treated cells. In the meanwhile, cells which were heated at 45° C. for ten minutes followed by subjecting to the same incubation were prepared as well.
The cells treated as such were subjected to an SDS-PAGE by a method mentioned in "Molecular Cloning" [Cold Spring Harbor Laboratory Press, (1989)]. The treated cells were suspended in an SDS-PAGE sample buffer to make the concentration 2.5×10^6 cells/ml, the resulting cell suspension was treated at 100° C. for ten minutes and each 5 μl thereof was applied to two sheets of SDS-PAGE gels (5% stacking gel; 10% separation gel) to conduct an electrophoresis. One of the gels was stained with Coomassie Brilliant Blue R250 while another gel was subjected to a blotting to a polyvinylidene difluoride transfer membrane (Immobilon™, manufactured by Millipore, catalog no. IPVH000-10). The membrane was subjected to a blocking at 4° C. for one night with Block Ace (manufactured by Dainippon Pharmaceutical; catalog no. UK-B25).
The blocked membrane was made to react with monoclonal antibody HSP 72/73 (Ab-1) (manufactured by Oncogene Research Products, catalog no. HSP01) which specifically reacted with heat-induced heat shock protein of 70 kDa and washed with TBS containing 0.05% of Tween 20 followed by further washing with TBS. After that, it was made to react with peroxidase-compounded secondary antibody HRP-Rabbit Anti-Mouse IgG (H+L) (manufactured by Zymed Laboratories, catalog no. 61-6520) and washed by the same manner as in the above operation. The membranes which were treated with primary and secondary antibodies as such were made to react with Renaissance™ (a chemiluiminor reagent manufactured by Dupont NEN, catalog no. NEL-100) and photosensitized with an X-ray film to detect the induction of heat shock protein of 70 kDa.
(2) CM was added to the incubated cells to make its final concentration 0, 10, 20, 30, 40 or 50 μM and expression of HSP70 was measured by the method as mentioned in Example 14-(1).

Sarcoma-180 = assay: Sarcoma-180/ICR mice macrobiotic effect; type: in vivo
EAC = assay: EAC/DDY mice macrobiotic effect; type: in vivo
[3] = 30, 100, 300 mg/kg oral, 21 days

N[C@@H](CCC(=O)N[C@@H](CSC1C=C(O)C(=O)C1)C(=O)NCC(=O)O)C(=O)O (some centres unmarked) [GM, 2-hydroxy-4-glutathion-S-yl-2-cyclopenten-1-one]
blood sugar [1, 3]: decreased in each of the groups administered with GM
free fatty acids in serum [1, 3]: decreased
insulin in serum [1, 3]: decreased in each of the groups administered with GM
total cholesterol in serum [1, 3]: de creased
effect of lowering blood sugar, insulin and lipid ([1]; Example 13, summary): effect of lowering blood sugar, insulin and lipid
Induction of Heat Shock Protein ([2]; 0.5 μM GM, eight hours): ±
Induction of Heat Shock Protein ([2]; 1.0 μM GM, eight hours): ±
Induction of Heat Shock Protein ([2]; 3.0 μM GM, eight hours): +
Induction of Heat Shock Protein ([2]; 5.0 μM GM, eight hours): +
Induction of Heat Shock Protein ([2]; 10 μM GM, eight hours): ++
Induction of Heat Shock Protein ([2]; 20 μM GM, eight hours): ++
action of inducing the heat shock protein (in words) [2]: action of inducing the heat shock protein
macrobiotic effect (Sarcoma-180): same macrobiotic effect
macrobiotic effect (EAC): same macrobiotic effect

N[C@@H](CSC1C=C(O)C(=O)C1)C(=O)O (some centres unmarked) [CM]
triglycerides in serum [1, 3]: decreased
Induction of Heat Shock Protein ([2]; 10 μM CM): +
Induction of Heat Shock Protein ([2]; 20 μM CM): ++
Induction of Heat Shock Protein ([2]; 30 μM CM): ++
Induction of Heat Shock Protein ([2]; 40 μM CM): +
Induction of Heat Shock Protein ([2]; 50 μM CM): +
action of inducing the heat shock protein (in words) [2]: action of inducing the heat shock protein
macrobiotic effect (Sarcoma-180): same macrobiotic effect
macrobiotic effect (EAC): same macrobiotic effect
